Patent US20100272837A1, “TRADITIONAL CHINESE MEDICINAL COMPOSITIONS FOR TREATING DEPRESSION , FORMULATION THEREOF, METHOD FOR PREPARING THE SAME THEREOF” (HEBEI YILING MEDICINE RESEARCH INSTITUTE CO. LTD., priority 2006, published 2010)
Structures can show the parent of a compound that is named as a salt.

What was measured:
Assay type in all cases: in vivo, ICR mice
normal mice [1] = experiment: Analgetic effects on normal mice (hot plate method); conditions: 0.33 g/kg body weight, gavage 3 days; hot plate 56±0.5
Protocol: ICR female mice having a body weight of 18-22 g were stochastically divided into six groups according to the body weight. Before test, the temperature of the aqueous thermostat was controlled at 56±0.5[…]. One mouse was placed on the hot plate each time, and the time of licking postpedes was defined as the pain threshold of said mouse. […] The normal pain thresholds were measured again. The average value of two normal pain thresholds was used as the pain threshold of the mouse before administration. […] There were 22 mice in the normal control group, and there were 11 mice in each of other groups.

[2] = system: mice given sodium pentobarbital; experiment: Rate of falling asleep caused by intraperitoneal sodium pentobarbital; conditions: 0.33 g/kg body weight, gavage 7 days; sodium pentobarbital 35 mg/kg ip; 11 animals
Protocol: III. […] Method: ICR mice having a body weight of 18-22 g, half male and half female, were randomly divided into five groups according to the body weight (see Table 14 for details). The animals in the groups of administration with a drug were consecutively administered for 7 days by gavage. Mice were weighed before the last administration, and administered by intraperitoneal injection with 35 mg/kg body weight sodium pentobarbital at 1 h after the last administration. The number of animals falling asleep was recorded.

mice given acetic acid = experiment: Stretching caused by intraperitoneal acetic acid (stretching method); conditions: 0.33 g/kg body weight, gavage 3 days; 0.6% glacial acetic acid ip; during 15 minutes
Source text: Method: ICR mice having a body weight of 18-22 g, half male and half female, were randomly divided into five groups according to the body weight, including the group of 5 g/kg body weight capsules of the present invention, the group of 2.5 g/kg body weight capsules of the present invention, the group of 1.25 g/kg body weight capsules of the present invention, the aspirin group (0.33 g/kg body weigh), and the normal control group (administered with isovolumetric normal saline). There were 19 mice in the normal control group, and there were 10-11 mice in each of other groups. The animals in the groups of administration with a drug were consecutively administered for 3 days by gavage. Except the normal control group, each mouse in other groups was administered by intraperitoneal injection with 0.1 ml/10 g body weight 0.6% glacial acetic acid at 1 h after the final administration. Then the times of stretching caused by glacial acetic acid during 15 minutes after injection were recorded.

[3] = system: mice of reserpine depression model; experiment: Body temperature of mice treated with reserpine; conditions: for Body temperature, 6 h after making models: rectal temperature; for effect on fall in body temperature caused by reserpine (in words): P<0.01
Protocol: Method: ICR male mice (SPF-grade, having a body weight of 18-22 g) were stochastically divided into seven groups according to the body weight, and the dosages administrated are shown in Table 7. The animals in the groups of administration with a drug were administered for 22 consecutive days, and the basal body temperature (rectal temperature) of the animals was measured before administration on the 22nd day. […] The difference values of body temperature before and after administration and the difference values of their own body temperatures were calculated so as to conduct the statistical comparison by single factor analysis of variance (H. G Vogel & W. H. Vogel, Drug Discovery and Evaluation […]Guidance for Pharmacological Assays, translated by D U Guanhua et al, [M] Beijing: Science Press, 2001.409,412). The results can be found in Tables 7 and 8.

[4] = system: mice of reserpine depression model; experiment: NA, DA and 5-HT in the brain tissue of reserpine mice (fluorophotometry); conditions: for 5-HT in the brain tissue of reserpine mice / DA in the brain tissue of reserpine mice / NA in the brain tissue of reserpine mice: gavage 25 days, reserpine 1 mg/kg ip
Protocol: The animals in the groups of administration with a drug were administered by gavage for 25 consecutive days. The normal control group and reserpine control group were administered with isovolumetric distilled water. On the 23rd day of the test, 1 mg/kg body weight of reserpine was ip administered for each group except the normal control group, and each group receiving reserpine was administered once more. At 1 hour after the last administration of reserpine, the heads of mice were cut off and the brain tissues were taken out, frozen with dry ice and preserved at −20□. The content of noradrenaline (NA), dopamine (DA) and 5-hydroxytryptamine (5-HT) in the cerebellar tissue homogenate was measured respectively by means of fluorophotometry.
(§1) At the end of the test, the heads of mice were rapidly cut off and the brain tissues were immediately taken out, promptly frozen with dry ice and moved into a refrigerator having a temperature of −20□. The tissue was defreezed before homogenization. The cerebellum, medulla oblongata and olfactory bulb were removed, and then 300 mg brain tissue was weighed with a analytical balance. Then 10 times amount by volume of acidic n-butanol (prepared by saturating 100 ml re-steamed n-butanol with NaCl, and mixing with 0.85 ml strong hydrochloric acid) were added into the brain tissue for homogenization.
(§2) The brain tissue homogenate was centrifugated (2,000 rpm) for 5 min. Then 2.5 ml supernatant was taken out and placed in centrifuge tube with a plug containing 1 ml 0.1N HC1 and 5 ml n-heptane. The centrifuge tube was placed on the KS vibrator, oscillated for 5 min and centrifugated (2,500 rpm) for 5 min. 6 to ml upper organic phase was placed into the tube having a plug and containing 0.6 ml 0.033 M NaHCO3 so as to extract 5-HIAA. Then 0.5 ml and 0.4 ml were respectively taken out from the lower aqueous phase, wherein the former was used to measure NA and DA, and the latter was used to measure 5-HT.
(§3) Internal standard tube treatment: 9 ml of the acidic n-butanol homogenate was averagely divided into 3 tubes, to two of them, 40 μl mixed standard solution (respectively containing 5 μg/ml standard substances of NA, DA and 5-HT) was added.

5-HTP model mice = experiment: Shaking-head behavior induced by 5-hydroxytryptophane (5-HTP) after pargyline; conditions: 14 mg/kg body weight; P<0.01
Source text: (IV) Effects of Capsules of the Present Invention on Shaking-Head Behavior Induced by 5-hydroxytryptophane (5-HTP) 1. Principle: according to the monoamine hypothesis on the occurrence of depression, the function of antidepressant lies in that it can enhance the functions of the noradrenergic and/or serotonergic nerve. A great variety of antidepressant may enhance the effect of 5-HT by blocking the reuptake of 5-HT. 5-HTP may be used as a precursor of 5-HT, and monoamine oxidase inhibitor—pargyline hydrochloride may inhibit the enzymatic degradation thereof. The characteristic symptom—shaking-head behavior is obvious on mice. The enhancement of shaking-head behavior of mice after administration of the test drug may be used as an evidence to the fact that the inhibition of 5-HT uptaking function is the anti-depression mechanism. 2. Method: ICR male mice (20±1 g) were stochastically divided into seven groups according to the body weight, and each group comprises 12 animals. The animals in the groups of administration with a drug were consecutively administered by gavage for 21 days. […] Except the normal control group, other groups were administered with 20 mg/kg body weight of 5-HTP by intraperitoneal injection 90 min after injection of pargyline; and the times of shaking-head behavior were recorded in the following 10 minutes.

[5] = system: mice of reserpine depression model; experiment: Eyelids closing (ptosis) caused by reserpine; conditions: for Number of animals which close the eyelids at 1 h after the administration, ± (semi-open eyelids) / Number of animals which close the eyelids at 1 h after the administration, − (open eyelids) / Number of animals which close the eyelids at 1 h after the administration, □ (close eyelids) / Number of animals which close the eyelids at 2 h after the administration, ± (semi-open eyelids) / Number of animals which close the eyelids at 2 h after the administration, − (open eyelids) / Number of animals which close the eyelids at 2 h after the administration, □ (close eyelids) / Number of animals which close the eyelids at 6 h after the administration, ± (semi-open eyelids) / Number of animals which close the eyelids at 6 h after the administration, − (open eyelids) / Number of animals which close the eyelids at 6 h after the administration, □ (close eyelids): gavage 22 days, reserpine 2 mg/kg ip, 15 animals; for effect on reserpine-induced ptosis (in words): P<0.01
Protocol: (§4) Method: ICR male mice (SPF-grade, having a body weight of 17-20 g) were stochastically divided into seven groups according to the body weight, and the administration dosages can be found in Table 1. The animals in the groups of administration with a drug were administered by gavage for 22 consecutive days. The normal control group and the reserpine control group were administered by gavage with isovolumetric distilled water (0.2 ml/10 g body weight). 2 mg/kg body weight of reserpine was administered by intraperitoneal injection on the 22nd day. After 1 h, 2 h and 6 h of injection of reserpine, animals were placed on a bracket and under observation for 15 s to record the number of animals that closed the eyelids (wherein “−” represents open eyelids; “±” represents semi-open eyelids; and “+” represents close eyelids). […] At 2 h, 4 h, and 6 h after the administration of reserpine, animals were placed at the center of a piece of circular white paper with a diameter of 7.5 cm and under observation for 15 s to record the number of animals that still remained within the circle in 15 s.

[6] = system: mice of reserpine depression model; experiment: “Excircle” behaviour (akinesia) of mice treated with reserpine; conditions: for Number of animals that have excircle behaviors at 2 h, Excircle (+) / Number of animals that have excircle behaviors at 2 h, Within circle (□) / Number of animals that have excircle behaviors at 4 h, Excircle (+) / Number of animals that have excircle behaviors at 4 h, Within circle (□) / Number of animals that have excircle behaviors at 6 h, Excircle (+) / Number of animals that have excircle behaviors at 6 h, Within circle (□): gavage 22 days, reserpine 2 mg/kg ip, 15 animals; for effect on “excircle” rate of reserpine mice (in words): P<0.05 or P<0.01
Protocol: as §4

normal mice [7] = experiment: NA, DA and 5-HT in the brain tissue of normal mice (fluorophotometry); conditions: for 5-HT in the brain tissue of normal mice / DA in the brain tissue of normal mice / NA in the brain tissue of normal mice: gavage 25 days, 80 min after final administration; for effect on 5-HT in brain tissue of normal mice (in words) / effect on NA and DA in brain tissue of normal mice (in words): positive control, P<0.01
Protocol: Method: ICR male mice; and the groups and administration doses can be found in Table 10. The animals in the groups of administration with a drug were administered by gavage for 25 consecutive days. At 80 min after the final administration, the heads of mice were cut off and the brain tissues were taken out, frozen with dry ice and preserved at −20□. The content of noradrenaline (NA), dopamine (DA) and 5-hydroxytryptamine (5-HT) in the whole brain homogenate without cerebellum was measured respectively by means of the fluorophotometry^[2].
as §1, §2, §3
(3) Measurement: The fluorophotometry was conducted on NA, DA and 5-HT (KUANG Peigen, ZHOU Xinfu and XU Bo, Extraction of Monoamine Neurotransmitters in Brain Tissue and Measurement of the Neurotransmitters by Means of Fluorophotometry, Academic Journal of PLA Postgraduate Medical School, 1982, 3(2) 181-185).

[8] = 0.014 g/kg body weight, 22 days, reserpine 2 mg/kg ip
[9] = 0.01 g/kg body weight, 5 animals
[10] = 0.01 g/kg body weight per Table 10
[11] = 0.050 g/kg body weight, 22 days, reserpine 2 mg/kg ip
[12] = 0.050 g/kg body weight, 8 animals
[13] = 0.05 g/kg body weight per Table 10

SMILES: CC(=O)Oc1ccccc1C(=O)O [Aspirin]
- Pain threshold, 1 h after admi. (normal mice [1]): 18.27 ± 12.52 S
- Pain threshold, 3 h after admi. (normal mice [1]): 15.27 ± 2.57 S
- Pain threshold, 5 h after admi. (normal mice [1]): 16.09 ± 4.70 S
- Number of animals falling asleep, Falling asleep [2]: 5
- Number of animals falling asleep, Not falling asleep [2]: 6
- Stretching times (mice given acetic acid): 12.00 ± 9.20

SMILES: CNCCC(Oc1ccc(C(F)(F)F)cc1)c1ccccc1 (centres unmarked) [Fluose fine hydrochloride, Fluoxetine Hydrochloride]
- Body temperature difference, 6 h after making models [3, 8]: 2.66 ± 1.11 □
- Body temperature difference, 24 h after making models [3, 8]: 2.27 ± 1.00 □
- Body temperature, 6 h after making models [3, 8]: 35.0 ± 0.87 □
- effect on fall in body temperature caused by reserpine (in words) ([3]; 14 mg/kg body weight): notably antagonize the fall in body temperature
- 5-HT in the brain tissue of reserpine mice [4, 9]: 707.25 ± 115.94 ng/g
- DA in the brain tissue of reserpine mice [4, 9]: 1967.20 ± 562.57 ng/g
- NA in the brain tissue of reserpine mice [4, 9]: 1326.48 ± 670.50 ng/g
- effect on 5-HTP-induced shaking-head behavior (in words) (5-HTP model mice): notably increase the times of 5-HTP-induced shaking-head behavior
- Number of animals which close the eyelids at 1 h after the administration, ± (semi-open eyelids) ([5]; 0.014 g/kg body weight): 8
- Number of animals which close the eyelids at 1 h after the administration, − (open eyelids) ([5]; 0.014 g/kg body weight): 7
- Number of animals which close the eyelids at 1 h after the administration, □ (close eyelids) ([5]; 0.014 g/kg body weight): 0
- Number of animals which close the eyelids at 2 h after the administration, ± (semi-open eyelids) ([5]; 0.014 g/kg body weight): 6
- Number of animals which close the eyelids at 2 h after the administration, − (open eyelids) ([5]; 0.014 g/kg body weight): 5
- Number of animals which close the eyelids at 2 h after the administration, □ (close eyelids) ([5]; 0.014 g/kg body weight): 4
- Number of animals which close the eyelids at 6 h after the administration, ± (semi-open eyelids) ([5]; 0.014 g/kg body weight): 11
- Number of animals which close the eyelids at 6 h after the administration, − (open eyelids) ([5]; 0.014 g/kg body weight): 2
- Number of animals which close the eyelids at 6 h after the administration, □ (close eyelids) ([5]; 0.014 g/kg body weight): 2
- effect on reserpine-induced ptosis (in words) ([5]; 14 mg/kg body weight): antagonistic against reserpine-induced ptosis
- Number of animals that have excircle behaviors at 2 h, Excircle (+) ([6]; 0.014 g/kg body weight): 15
- Number of animals that have excircle behaviors at 2 h, Within circle (□) ([6]; 0.014 g/kg body weight): 0
- Number of animals that have excircle behaviors at 4 h, Excircle (+) ([6]; 0.014 g/kg body weight): 15
- Number of animals that have excircle behaviors at 4 h, Within circle (□) ([6]; 0.014 g/kg body weight): 0
- Number of animals that have excircle behaviors at 6 h, Excircle (+) ([6]; 0.014 g/kg body weight): 14
- Number of animals that have excircle behaviors at 6 h, Within circle (□) ([6]; 0.014 g/kg body weight): 1
- effect on “excircle” rate of reserpine mice (in words) ([6]; 14 mg/kg body weight): notably increase the “excircle” rate
- 5-HT in the brain tissue of normal mice (normal mice [7]; 0.01 g/kg body weight): 841.85 ng/g
- DA in the brain tissue of normal mice (normal mice [7]; 0.01 g/kg body weight): 1432.52 ± 395.77 ng/g
- NA in the brain tissue of normal mice (normal mice [7]; 0.01 g/kg body weight): 896.46 ng/g
- effect on 5-HT in brain tissue of normal mice (in words) (normal mice [7]; [10]): notably increase the level of 5-HT
- effect on NA and DA in brain tissue of normal mice (in words) (normal mice [7]; [10]): increase the level of NA and DA

SMILES: CN(C)CCC=C1c2ccccc2CCc2ccccc21 [amitriptyline, Amitriptyline Hydrochloride]
- Body temperature difference, 6 h after making models [3, 11]: 2.38 ± 1.30 □
- Body temperature, 6 h after making models [3, 11]: 34.36 ± 1.12 □
- effect on fall in body temperature caused by reserpine (in words) ([3]; 50 mg/kg body weight): notably antagonize the fall in body temperature
- effect on NA and DA in brain tissue of reserpine mice (in words) ([4]; 50 mg/kg body weight): notably enhance the level of NA and DA
- 5-HT in the brain tissue of reserpine mice [4, 12]: 557.57 ± 174.75 ng/g
- DA in the brain tissue of reserpine mice [4, 12]: 1806.61 ± 275.37 ng/g
- NA in the brain tissue of reserpine mice [4, 12]: 1023.46 ± 619.56 ng/g
- Number of animals which close the eyelids at 1 h after the administration, ± (semi-open eyelids) ([5]; 0.050 g/kg body weight): 10
- Number of animals which close the eyelids at 1 h after the administration, − (open eyelids) ([5]; 0.050 g/kg body weight): 4
- Number of animals which close the eyelids at 1 h after the administration, □ (close eyelids) ([5]; 0.050 g/kg body weight): 1
- Number of animals which close the eyelids at 2 h after the administration, ± (semi-open eyelids) ([5]; 0.050 g/kg body weight): 11
- Number of animals which close the eyelids at 2 h after the administration, − (open eyelids) ([5]; 0.050 g/kg body weight): 2
- Number of animals which close the eyelids at 2 h after the administration, □ (close eyelids) ([5]; 0.050 g/kg body weight): 2
- Number of animals which close the eyelids at 6 h after the administration, ± (semi-open eyelids) ([5]; 0.050 g/kg body weight): 12
- Number of animals which close the eyelids at 6 h after the administration, − (open eyelids) ([5]; 0.050 g/kg body weight): 0
- Number of animals which close the eyelids at 6 h after the administration, □ (close eyelids) ([5]; 0.050 g/kg body weight): 3
- effect on reserpine-induced ptosis (in words) ([5]; 50 mg/kg body weight): antagonistic against reserpine-induced ptosis
- Number of animals that have excircle behaviors at 2 h, Excircle (+) ([6]; 0.050 g/kg body weight): 15
- Number of animals that have excircle behaviors at 2 h, Within circle (□) ([6]; 0.050 g/kg body weight): 0
- Number of animals that have excircle behaviors at 4 h, Excircle (+) ([6]; 0.050 g/kg body weight): 13
- Number of animals that have excircle behaviors at 4 h, Within circle (□) ([6]; 0.050 g/kg body weight): 2
- Number of animals that have excircle behaviors at 6 h, Excircle (+) ([6]; 0.050 g/kg body weight): 13
- Number of animals that have excircle behaviors at 6 h, Within circle (□) ([6]; 0.050 g/kg body weight): 2
- effect on “excircle” rate of reserpine mice (in words) ([6]; 50 mg/kg body weight): notably increase the “excircle” rate
- 5-HT in the brain tissue of normal mice (normal mice [7]; 0.05 g/kg body weight): 1015.17 ng/g
- DA in the brain tissue of normal mice (normal mice [7]; 0.05 g/kg body weight): 1519.29 ± 373.72 ng/g
- NA in the brain tissue of normal mice (normal mice [7]; 0.05 g/kg body weight): 803.54 ng/g
- effect on 5-HT in brain tissue of normal mice (in words) (normal mice [7]; [13]): notably increase the level of 5-HT
- effect on NA and DA in brain tissue of normal mice (in words) (normal mice [7]; [13]): increase the level of NA and DA
